Measured values reported in patent US20240360148A1 (SUVALENT THERAPEUTICS, INC., priority 2021, published 2024).

How the values were obtained:
SAE1 = SAE1 (Homo sapiens (Human), UniProt Q9UBE0+Q9UBT2); assay: SAE High Throughput Biochemical Assay (HTRF), 15 min preincubation; conditions: read-out: 15 min preincubation HTRF IC50 (μM) Ave, SAE1 12.5 nM, ATP 100 μM
How it was run: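 HTRF detection of SUMO transfer from SUMO-GST to UBC9-His (40 nM each) by SAE1 at 12.5 nM used 100 μM ATP in pH 7.5 HEPES buffer with 10 mM MgCl2 and 0.1% BSA. Enzyme and compound were preincubated 15 min at RT and the reaction ran 45 min, with readings after 2 h and overnight.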

[1] = tested on: sumoylation levels (SUMO 2/3 conjugates) in HCT-116 cells; assay: HCT-116 4 Hour Cell Assay (Western, SUMO 2/3 conjugates); format: cell-based; conditions: Homo sapiens, HCT-116, 4 h, 4 h treatment, Anti-Sumo 2-3 immunoblot, read-out: HCT-116 Western 4 h IC50 (μM) Ave
Protocol: This protocol describes the procedures used to assess the effects of compounds of interest on sumoylation levels. Immunoblot of SUMO 2/3 conjugates are performed and IC50 curves are generated upon quantification of sumoylations bands. HCT-116 cells are seeded in a 12 well plate (500,000 cells/well). The following day the cells are treated with compounds of interest (resuspended in DMSO) for 4 hours (11 concentrations with a three-fold dilution; starting concentration 25 μM) Following 4 hours of incubation the cells are washed with ice cold PBS 1×and protein extraction is performed with RIPA buffer supplemented with phosphatases and proteases inhibitors, 25 mM of NEM and 50 units/mL of Benzonase. Samples undergo centrifugation at 13,000 RPM, 4° C., for 10 minutes and the supernatant is collected. Protein quantification is performed using BCA. Non-Reducing Laemmli Buffer is added to the samples. Samples are heated at 75° C. for 10 minutes, and are centrifuged for 3 minutes at 9000 RPM Nupage 4-12% Bis Tris gels and 1× MOPS buffer (Fisher Scientific)+1× NuPAGE Antioxidant (Invitrogen) are used to perform the SDS-PAGE gel electrophoresis (20 to 40 μg of proteins are loaded in the gels). Proteins are then transferred to PVDF membranes and the level of total proteins are measured by staining with Revert Total Protein Stain and the fluorescent bands are acquired using the LI-COR FC (700 nm for 1 min) Membranes are blocked for 5 minutes with Bio-Rad Blocking Buffer and are subsequently incubated over night at 4° C. with Anti-Sumo 2-3 mAb (M BL #M114-3, 1:1000 in Bio-Rad Blocking Buffer, 0.2% Tween 20) Membranes are washed with 1×TBS-T (3 times for 5 minutes) and sumoylation is detected using Li-cor IRDye 800CW Goat anti-Mouse IgG secondary antibody (1:10,000 dilution) upon 1 hour of incubation in blocking buffer with 0.2% Tween 20 and 0.01% SDS. After the incubation, the membranes are washed with 1×TBS-T (3 times for 5 minutes). To visualize the fluorescent bands the membranes are scanned with LI-COR FC (700 nm for 1 min and […] for 2 mins). Sumoylation levels are quantified upon normalization with total protein levels, using the LI-COR Image Studio Lite 5.2 Software.

Chain of SAE1 (Q9UBE0 whole entry): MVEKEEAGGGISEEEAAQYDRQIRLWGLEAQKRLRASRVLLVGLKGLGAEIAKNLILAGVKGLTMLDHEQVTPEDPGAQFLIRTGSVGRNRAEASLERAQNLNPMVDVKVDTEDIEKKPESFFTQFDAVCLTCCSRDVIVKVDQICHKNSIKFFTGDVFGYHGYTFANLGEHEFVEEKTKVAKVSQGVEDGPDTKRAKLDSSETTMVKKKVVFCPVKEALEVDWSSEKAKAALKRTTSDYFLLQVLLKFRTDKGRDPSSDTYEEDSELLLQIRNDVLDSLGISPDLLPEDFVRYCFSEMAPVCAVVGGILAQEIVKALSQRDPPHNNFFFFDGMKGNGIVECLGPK
Chain of SAE1 (Q9UBT2 whole entry): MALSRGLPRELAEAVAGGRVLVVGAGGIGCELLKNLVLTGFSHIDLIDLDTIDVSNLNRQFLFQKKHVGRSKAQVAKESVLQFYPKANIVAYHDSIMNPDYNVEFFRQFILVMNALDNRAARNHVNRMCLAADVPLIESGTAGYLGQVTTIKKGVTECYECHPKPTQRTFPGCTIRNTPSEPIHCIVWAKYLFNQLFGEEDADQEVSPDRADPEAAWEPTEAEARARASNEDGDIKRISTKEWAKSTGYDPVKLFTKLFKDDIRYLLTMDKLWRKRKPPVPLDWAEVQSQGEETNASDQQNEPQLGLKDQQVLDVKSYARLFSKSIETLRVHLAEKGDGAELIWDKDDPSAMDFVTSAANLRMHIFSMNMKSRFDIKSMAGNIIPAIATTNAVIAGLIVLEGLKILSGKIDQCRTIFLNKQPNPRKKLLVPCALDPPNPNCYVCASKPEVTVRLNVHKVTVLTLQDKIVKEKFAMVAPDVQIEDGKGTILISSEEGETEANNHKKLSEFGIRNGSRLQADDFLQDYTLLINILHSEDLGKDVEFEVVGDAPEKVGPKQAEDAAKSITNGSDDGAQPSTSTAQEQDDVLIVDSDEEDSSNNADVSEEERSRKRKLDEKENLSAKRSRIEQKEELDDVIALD

SMILES | IC50 [1] | IC50 (SAE1)
CCn1cc(-c2ccccc2[C@@H]2CN(C(=O)/C=C/[C@@H]3CC4(CC4)CN3)Cc3sc(C#N)cc32)c(C(F)(F)F)n1 [Example 116, (S)-6-((E)-3-((S)—S-Azaspiro(2.4]heptan-6-yl)acryloyl)-4-(2-(1-ethyl-3-(trifluoromethyl)-1H pyrazol-4-yl)phenyl)-4,5,6,7-tetrahydrothieno[2,3-c]pyridine-2-carbonitrile] | 0.202 µM | 1.49 µM
CCn1cc(-c2ccccc2[C@@H]2CN(C(=O)/C=C/CN3CCCC3)Cc3sc(C#N)cc32)c(C(F)(F)F)n1 [Example 30, (S, E)-4-(2-(1-ethyl-3-(trifluoromethyl)-1 H-pyrazol-4-yl)phenyl)-6-(4-(pyrrolidin-1-yl)but-2-enoyl)-4,5,6,7-tetrahydrothieno[2,3-c]pyridine-2-carbonitrile] | 0.746 µM | 3.3 µM
CN(C)C/C=C/C(=O)N1Cc2sc(C#N)cc2[C@H](c2ccccc2-c2cn(-c3c(F)cncc3F)nc2C(F)(F)F)C1 [Example 159, (S,E)-4-(2-(1-(3,5-Difluoropyridin-4-yl)-3-(trifluoromethyl)-1H pyrazol-4-yl)phenyl)-6-(4-(dimethylamino)but-2-enoyl)-4,5,6,7-tetrahydrothieno[2,3-c]pyridine-2-carbonitrile] | 0.128 µM | 4.52 µM
CCn1cc(-c2ccccc2[C@@H]2CN(C(=O)/C=C/CF)Cc3sc(C#N)cc32)c(C(F)(F)F)n1 [Example 20, (S, E)-4-(2-(1-ethyl-3-(trifluoromethyl)-1 H-pyrazol-4-yl)phenyl)-6-(4-fluorobut-2-enoyl)-4,5,6,7-tetrahydrothieno[2,3-c]pyridine-2-carbonitrile] | 0.692 µM | 0.69 µM
CCn1cc(-c2c(F)cccc2[C@@H]2CN(C(=O)/C=C/[C@@H]3CCN3)Cc3sc(C#N)cc32)c(C(F)(F)F)n1 [Example 53, (S)-6-((E)-3-((S)-azetidin-2-yl)acryloyl)-4-((S)-2-(1-ethyl-3-(trifluoromethyl)-1 H-pyrazol-4-yl)-3-fluorophenyl)-4,5,6,7-tetrahydrothieno[2,3-c]pyridine-2-carbonitrile] | 0.191 µM | 0.34 µM
CC(C#N)n1cc(-c2ccccc2[C@@H]2CN(C(=O)/C=C/CN(C)C)Cc3sc(C#N)cc32)c(C(F)(F)F)n1 (stereo partly drawn) [Example 165, (4S)-4-(2-(1-(1-Cyanoethyl)-3-(trifluoromethyl)-1H-pyrazol-4-yl)phenyl)-6-((E)-4-(dimethylamino)but-2-enoyl)-4,5,6,7-tetrahydrothieno[2,3-c]pyridine-2-carbonitrile] | 1.06 µM | 3.42 µM
CCn1cc(-c2ccccc2[C@@H]2CN(C(=O)C#C[C@@]3(C)CCCN3)Cc3sc(C#N)cc32)c(C(F)(F)F)n1 [Example 141, (S)-4-(2-(1-Ethyl-3-(trifluoromethyl)-1 H pyrazol-4-yl)phenyl)-6-(3-((R)-2-methylpyrrolidin-2-yl)propioloyl)-4,5,6,7-tetrahydrothieno[2,3-c]pyridine-2-carbonitrile] | 4.88 µM | 0.35 µM
[2H]C(C)(C)NC/C=C/C(=O)N1Cc2sc(C#N)cc2[C@H](c2cccc(F)c2-c2cn(CC)nc2C(F)(F)F)C1 [Example 52, (S, E)-4-(2-(1-ethyl-3-(trifluoromethyl)-1 H-pyrazol-4-yl)-3-fluorophenyl)-6-(4-((propan-2-yl-2-d)amino)but-2-enoyl)-4,5,6,7-tetrahydrothieno[2,3-c]pyridine-2-carbonitrile] | 0.308 µM | 0.69 µM
CCn1cc(-c2c(C3CN(C(=O)/C=C/CN(C)C)Cc4sc(C#N)cc43)csc2C)c(C(F)(F)F)n1 (centres unmarked) [Example 199, (E)-6-(4-(Dimethylamino)but-2-enoyl)-4-(4-(1-ethyl-3-(trifluoromethyl)-1 H-pyrazol-4-yl)-5-methylthiophen-3-yl)-4,5,6,7-tetrahydrothieno[2,3-c]pyridine-2-carbonitrile] | 1.26 µM | 2.87 µM
CCNC/C=C/C(=O)N1Cc2sc(C#N)cc2[C@H](c2ccccc2-c2cn(CC)nc2C(F)(F)F)C1 [Example 99, (S, E)-4-(2-(1-Ethyl-3-(trifluoromethyl)-1 H-pyrazol-4-yl)phenyl)-6-(4-(ethylamino)but-2-enoyl)-4,5,6,7-tetrahydrothieno[2,3-c]pyridine-2-carbonitrile] | 0.563 µM | 2.83 µM

The remaining compounds from weak to strong by IC50 [1], led by results:

IC50 [1] | SMILES | IC50 (SAE1)
8.85 µM | CCn1cc(-c2cc(NS(C)(=O)=O)ccc2C2CN(C(=O)/C=C/CN(C)C)Cc3sc(C#N)cc32)c(C(F)(F)F)n1 (centres unmarked) [Example 193, (E)-N-(4-(2-Cyano-6-(4-(dimethylamino)but-2-enoyl)-4,5,6,7-tetrahydrothieno[2,3-c]pyridin-4-yl)-3-(1-ethyl-3-(trifluoromethyl)-1 H-pyrazol-4-yl)phenyl)methanesulfonamide] | 9.08 µM
2.36 µM | CCn1cc(-c2ccccc2[C@@H]2CN(C(=O)C#C[C@]3(C)CCCN3)Cc3sc(C#N)cc32)c(C(F)(F)F)n1 [Example 140, (S)-4-(2-(1-Ethyl-3-(trifluoromethyl)-1 H-pyrazol-4-yl)phenyl)-6-(3-((S)-2-methylpyrrolidin-2-yl)propioloyl)-4,5,6,7-tetrahydrothieno[2,3-c]pyridine-2-carbonitrile] | 0.12 µM
1.79 µM | CCn1cc(-c2ccccc2[C@@H]2CN(C(=O)/C=C/[C@H]3CCCN3)Cc3sc(C#N)cc32)c(C(F)(F)F)n1 [Example 113, (S)-4-(2-(1-Ethyl-3-(trifluoromethyl)-1 H-pyrazol-4-yl)phenyl)-6-((E)-3-((R)-pyrrolidin-2-yl)acryloyl)-4,5,6,7-tetrahydrothieno[2,3-c]pyridine-2-carbonitrile] | 1.61 µM
0.569 µM | CCn1cc(-c2c(F)cccc2[C@@H]2CN(C(=O)/C=C/CN)Cc3sc(C#N)cc32)c(C(F)(F)F)n1 [Example 51, (S)-6-((E)-4-aminobut-2-enoyl)-4-((S)-2-(1-ethyl-3-(trifluoromethyl)-1 H-pyrazol-4-yl)-3-fluorophenyl)-4,5,6,7-tetrahydrothieno[2,3-c]pyridine-2-carbonitrile] | 1.29 µM
0.427 µM | CCn1cc(-c2ccccc2[C@@H]2CN(C(=O)/C=C/[C@@H]3C[C@@H]4C[C@@H]4N3)Cc3sc(C#N)cc32)c(C(F)(F)F)n1 [Example 117, (S)-6-((E)-3-((1S,3S,5S)-2-Azabicyclo[3.1.0]hexan-3-yl)acryloyl)-4-(2-(1-ethyl-3-(trifluoromethyl)-1H pyrazol-4-yl)phenyl)-4,5,6,7-tetrahydrothieno[2,3-c]pyridine-2-carbonitrile] | 1.16 µM
0.349 µM | CN(C)C/C=C/C(=O)N1Cc2sc(C#N)cc2[C@H](c2ccccc2-c2cn(-c3c(F)cncc3Cl)nc2C(F)(F)F)C1 [Example 156, (S,E)-4-(2-(1-(3-Chloro-5-fluoropyridin-4-yl)-3-(trifluoromethyl)-1H pyrazol-4-yl)phenyl)-6-(4-(dimethylamino)but-2-enoyl)-4,5,6,7-tetrahydrothieno[2,3-c]pyridine-2-carbonitrile] | 2.91 µM
0.262 µM | CCn1cc(-c2ccccc2[C@@H]2CN(C(=O)/C=C/[C@@H]3C[C@@H](C)CN3)Cc3sc(C#N)cc32)c(C(F)(F)F)n1 [Example 114, (S)-4-(2-(1-Ethyl-3-(trifluoromethyl)-1 H-pyrazol-4-yl)phenyl)-6-((E)-3-((2S, 4R)-4-methylpyrrolidin-2-yl)acryloyl)-4,5,6,7-tetrahydrothieno[2,3-c]pyridine-2-carbonitrile] | 1.19 µM
0.174 µM | CCNC/C=C/C(=O)N1Cc2sc(C#N)cc2[C@H](c2cccc(F)c2-c2cn(CC)nc2C(F)(F)F)C1 [Example 100, (S, E)-4-(2-(1-Ethyl-3-(trifluoromethyl)-1 H-pyrazol-4-yl)-3-fluorophenyl)-6-(4-(ethylamino)but-2-enoyl)-4,5,6,7-tetrahydrothieno[2,3-c]pyridine-2-carbonitrile] | 1.38 µM
0.106 µM | CCn1cc(-c2c(F)cccc2[C@@H]2CN(C(=O)/C=C/CN)Cc3sc(C#N)c(C)c32)c(C(F)(F)F)n1 [Compound 224] | 0.172 µM
